# Measured values from patent publication US10934332B2, “Structure-based peptide inhibitors that target the Tau VQIINK fibrillization segment” (THE REGENTS OF THE UNIVERSITY OF CALIFORNIA, priority 2017, dated 2021).
# Read-outs that look alike come from different tables or passages of the source. No end group written: not given here.
# Key:
# Tau40 = target: T1, Tau40 (Homo sapiens, UniProt P10636); test: ThT assay of Tau40 fibril formation; format: biochemical; conditions: heparin, shaking 700 rpm, 37° C.
# T1 construct: Human Tau40 (residues 1-441) was expressed in pET28b; His-tag (C); made in house; host or cells: BL21-Gold E. coli
# Experimental: The effect on fibril formation of Tau40 of the two resulting VQIINK (SEQ ID NO: 11) inhibitors, MINK (which contains a Met at position 4 to disrupt interface A) and WINK (which instead contains a Trp) was evaluated in vitro using a ThT assay.
# Human Tau40 (residues 1-441) was expressed in pET28b with a C-terminal His-tag in BL21-Gold E. coli cells grown in TB to an OD600=0.8. Cells were induced with 0.5 mM IPTG for 3 hours at 37° C. and lysed by sonication in 50 mM Tris (pH 8.0) with 500 mM NaCl, 20 mM imidazole, 1 mM beta-mercaptoethanol, and HALT protease inhibitor. Cells were lysed by sonication, clarified by centrifugation at 15,000 rpm for 15 minutes, and passed over a 5 ml HisTrap affinity column. The column was washed with lysis buffer and eluted over a gradient of imidazole from 20 to 300 mM. Fractions containing purified Tau40 were dialyzed into 50 mM MES buffer (pH 6.0) with 50 mM NaCl and 1 mM beta-mercaptoethanol and purified by cation exchange as described for K18. Peak fractions were polished on a HiLoad 16/600 Superdex […] in 1×PBS (pH 7.4), and concentrated to ˜20-60 mg/ml by ultrafiltration using a 10 kDa cutoff.
# Concentrated Tau protein was diluted into PBS buffer (pH 7.4) to a final concentration as indicated in the text. Proteins were shaken as solutions containing 75 μM ThT, 0.5 mg/ml heparin, 1 mM DTT, and a two-fold molar excess of inhibitor (when indicated) in 96-well plates with a plastic bead to enhance agitation. ThT fluorescence was measured with excitation and emission wavelengths of 440 and 480 nm, and averaged curves were generated from duplicate measurements.
# [1] = test system: HEK293 biosensor cells stably expressing full-length Tau 4R1N P301S-EYFP; test: Biosensor cell seeding with Tau40 fiber grown in the presence of inhibitor; format: cell-based, human; conditions: cells seeded with 125 nM Tau40 fiber grown with two-fold excess of inhibitor; about 61% in the absence of inhibitor
# Description: Cells seeded with Tau40 fiber grown with MINK or WINK reduced the percentage of seeded cells to 23 and 41%, respectively.
# (§1) Engineered HEK293 cell lines stably expressing Tau40-YFP P301S, referred to as “tau biosensor cells” were engineered by Marc Diamond's lab at UTSW. Cells were maintained in DMEM (Life Technologies, cat. 11965092) supplemented with 10% (vol/vol) FBS (Life Technologies, cat. A3160401), 1% penicillin/streptomycin (Life Technologies, cat. 15140122), and 1% Glutamax (Life Technologies, cat. 35050061) at 37° C., 5% CO2 in a humidified incubator. Tau40 aggregates were prepared in PBS (pH 7.4) with 1 mM DTT by shaking 25 μM Tau40 with 0.5 mg/ml heparin in the presence or absence inhibitor peptide, as indicated. Fibers were sonicated in a cuphorn water bath for 3 minutes before seeding cells. For seeding, fibers were diluted in OptiMEM (Life Technologies, cat. 31985070) and transfected using Lipofectamine 2000 (Life Technologies, cat. 11668027) according to the manufacturer's instructions. After seeding, cells were imaged using a ZEISS Axio Observer D1 fluorescence microscope using the YFP fluorescence channel and Tau aggregates were counted in ImageJ software.
# [2] = test system: Full-length Tau-YFP biosensor cells seeded with pre-formed Tau40 fibers; format: cell-based, human; conditions: for inhibition of seeding by pre-formed Tau40 fibers (in words): pre-formed Tau40 fibrils incubated with inhibitor before applying to biosensor cells
# Experimental: To test whether VQIINK (SEQ ID NO: 11) inhibitors can cap pre-formed fibers to block their spread, Tau40 amyloid fibrils were incubated with varying concentrations of inhibitor before applying to biosensor cells and measuring seeding. In addition, a third VQIINK (SEQ ID NO: 11) inhibitor, RINK which contains an Arg at position 4, was also tested.
# as §1
# [3] = 10 μM Tau40, two-fold mole excess of inhibitor
# [4] = 25 μM Tau40, two-fold mole excess of inhibitor
# T1 sequence (P10636 1-441 isoform P10636-8): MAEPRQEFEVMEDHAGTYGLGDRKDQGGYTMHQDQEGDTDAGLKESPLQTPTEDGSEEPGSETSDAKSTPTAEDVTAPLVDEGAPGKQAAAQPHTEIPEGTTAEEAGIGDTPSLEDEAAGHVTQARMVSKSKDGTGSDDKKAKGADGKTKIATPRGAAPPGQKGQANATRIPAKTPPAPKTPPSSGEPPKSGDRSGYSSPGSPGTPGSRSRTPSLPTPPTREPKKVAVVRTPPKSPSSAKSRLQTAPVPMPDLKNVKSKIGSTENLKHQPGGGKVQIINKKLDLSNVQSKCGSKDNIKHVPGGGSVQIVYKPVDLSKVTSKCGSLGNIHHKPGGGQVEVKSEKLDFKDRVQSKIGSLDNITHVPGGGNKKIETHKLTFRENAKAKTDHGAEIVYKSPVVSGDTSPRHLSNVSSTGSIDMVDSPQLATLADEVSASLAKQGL
Substance,Tau40 fibril formation (ThT fluorescence) (Tau40; [3]),Tau40 fibril formation (ThT fluorescence) (Tau40; [4]),percentage of seeded cells (cells with intracellular aggregates) [1] [%],IC50 [2] [µM],inhibition of seeding by pre-formed Tau40 fibers (in words) [2],seeding by Tau40 fibers in biosensor cells (fluorescence images) ([2]; 5 μM inhibitor),seeding by Tau40 fibers in biosensor cells (fluorescence images) ([2]; 25 μM inhibitor)
"DVQMINKKRK [MINK, DVQMINKKRK]",completely inhibiting any detectable Tau40 fibril formation for at least 60 hours,reduced Tau40 aggregation to about half,23,22,inhibit seeding by Tau40 fibers in a concentration dependent fashion,–,–
DVQRINKKRK,–,–,–,–,inhibited more poorly than MINK and WINK,–,–
"DVQWINKKRK [WINK, DVQWINKKRK]",reducing the amount of Tau40 aggregation to about half,reduced Tau40 aggregation to about half,41,25,inhibit seeding by Tau40 fibers in a concentration dependent fashion,–,–
"DVWMINKKRK [W-MINK, DVWMINKKRK]",–,–,–,9,–,Tau40 fibers are still able to induce seeding,seeding by Tau40 fibers is no longer observed
W-WINK: Phase 2 inhibitor: WINK incorporating a Trp steric clash at position 3 (DVWWINKKRK),–,–,–,–,performed more poorly than W-MINK,–,–
